What follows are compounds tested against T1, human β3 adrenergic receptor (Homo sapiens, UniProt P13945) (assay: Functional assay: cAMP production (LANCE TR-FRET) in CHO cells stably transfected with cloned β3 adrenergic receptor). Conditions: Table 4; human β3 functional activity; read-out: Human β Binding.
T1 construct: expressed in transfected cells; host or cells: Chinese hamster ovary (CHO) cells, stably transfected
Type: cell-based
Procedure: Chinese hamster ovary (CHO) cells, stably transfected with the cloned β-adrenergic receptor (β1, β2 or β3) are harvested after 3 days of subculturing. Harvesting of cells is done with Enzyme-free Dissociation Media (Specialty Media). Cells are then counted and resuspended in assay buffer (Hank's Balanced salt solution supplemented with 5 mM HEPES, 0.1% BSA) containing a phosphodiesterase inhibitor (IBMX, 0.6 mM). The reaction is initiated by mixing 6,000 cells in 6 μL with 6 μL Alexa Fluor labeled cAMP antibody (LANCE™ kit) which is then added to an assay well containing 12 μL of compound (diluted in assay buffer to 2× final concentration). The reaction proceeds for 30 min at room temperature and is terminated by the addition of 24 μL detection buffer (LANCE™ kit). The assay plate is then incubated for 1 h at room temperature and time-resolved fluorescence measured on a Perkin Elmer Envision reader or equivalent. The unknown cAMP level is determined by comparing fluorescence levels to a cAMP standard curve.
The non-selective, full agonist β-adrenergic ligand isoproterenol is used at all three receptors to determine maximal stimulation. […] Data are analyzed using Microsoft Excel and Graphpad Prism or an internally developed data analysis software package.

T1 sequence (P13945 whole entry): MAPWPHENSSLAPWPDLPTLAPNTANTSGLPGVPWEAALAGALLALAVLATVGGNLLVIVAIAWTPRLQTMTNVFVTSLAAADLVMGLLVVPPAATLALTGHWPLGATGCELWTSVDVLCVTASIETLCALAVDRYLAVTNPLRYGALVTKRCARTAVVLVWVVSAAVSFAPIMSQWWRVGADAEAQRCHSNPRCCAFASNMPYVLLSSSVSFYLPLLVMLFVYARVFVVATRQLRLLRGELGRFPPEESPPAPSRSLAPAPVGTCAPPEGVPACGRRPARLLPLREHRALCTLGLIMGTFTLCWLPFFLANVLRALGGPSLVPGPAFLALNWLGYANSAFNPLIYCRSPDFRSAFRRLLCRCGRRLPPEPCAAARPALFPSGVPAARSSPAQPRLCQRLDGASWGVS

Row | Compound | EC50
1 | O=C(Nc1ccc(C[C@@H]2CC[C@H]([C@H](O)c3ccccc3)N2)cc1)C1CCCN1c1nc2ccccc2s1 (stereo partly drawn) [Example 40] | 0.011 to 0.1 µM
2 | O=C(Cc1nnc(-c2ccccc2)[nH]1)Nc1ccc(C[C@@H]2CC[C@H]([C@H](O)c3ccccc3)N2)cc1 [Example 22] | < 0.001 µM
3 | O=C(Cc1nnc(-c2ccn[nH]2)[nH]1)Nc1ccc(C[C@@H]2CC[C@H]([C@H](O)c3ccccc3)N2)cc1 [Example 27] | 0.001 to 0.01 µM
4 | Cn1ncc2c(=O)n(CC(=O)Nc3ccc(C[C@@H]4CC[C@H]([C@H](O)c5ccccc5)N4)cc3)cnc21 [Example 60] | 0.001 to 0.01 µM
5 | O=C(Cn1nnc2ccccc2c1=O)Nc1ccc(C[C@@H]2CC[C@H]([C@H](O)c3ccccc3)N2)cc1 [Example 59] | 0.001 to 0.01 µM
6 | O=C(Cn1ccc(=O)nc1)Nc1ccc(C[C@@H]2CC[C@H]([C@H](O)c3ccccc3)N2)cc1 [Example 66] | 0.101 to 1 µM
7 | O=C(Cn1nc2ccccc2n1)Nc1ccc(C[C@@H]2CC[C@H]([C@H](O)c3ccccc3)N2)cc1 [Example 5] | 0.001 to 0.01 µM
8 | O=C(Cc1cnccn1)Nc1ccc(C[C@@H]2CC[C@H]([C@H](O)c3ccccc3)N2)cc1 [Example 94] | 0.001 to 0.01 µM
9 | O=C(Cn1cccnc1=O)Nc1ccc(C[C@@H]2CC[C@H]([C@H](O)c3ccccc3)N2)cc1 [Example 64] | 0.001 to 0.01 µM
10 | CC1=NN(CC(=O)Nc2ccc(C[C@@H]3CC[C@H]([C@H](O)c4ccccc4)N3)cc2)C(=O)C1 [Example 83] | 0.011 to 0.1 µM
11 | O=C(Cc1nnc(-c2ccc(Cl)cc2)[nH]1)Nc1ccc(C[C@@H]2CC[C@H]([C@H](O)c3ccccc3)N2)cc1 [Example 23] | 0.011 to 0.1 µM
12 | O=C(Nc1ccc(C[C@@H]2CC[C@H]([C@H](O)c3ccccc3)N2)cc1)c1ccccc1N1CCCC1 [Example 7] | 0.101 to 1 µM
13 | O=C(CN1CCCOC1=O)Nc1ccc(C[C@@H]2CC[C@H]([C@H](O)c3ccccc3)N2)cc1 [Example 98] | 0.001 to 0.01 µM
14 | Cc1cn(CC(=O)Nc2ccc(C[C@@H]3CC[C@H]([C@H](O)c4ccccc4)N3)cc2)nn1 [Example 79] | 0.001 to 0.01 µM
15 | O=C(Cn1ncccc1=O)Nc1ccc(C[C@@H]2CC[C@H]([C@H](O)c3ccccc3)N2)cc1 [Example 20] | 0.001 to 0.01 µM
16 | O=C(Cn1c(=O)ncc2ccccc21)Nc1ccc(C[C@@H]2CC[C@H]([C@H](O)c3ccccc3)N2)cc1 [Example 17] | 0.001 to 0.01 µM
17 | O=C(Nc1ccc(C[C@@H]2CC[C@H]([C@H](O)c3ccccc3)N2)cc1)c1ccccc1-c1nc2ccccc2s1 [Example 14] | 0.101 to 1 µM
18 | O=C(Cn1cncn1)Nc1ccc(C[C@@H]2CC[C@H]([C@H](O)c3ccccc3)N2)cc1 [Example 80] | 0.011 to 0.1 µM
19 | O=C(CN1CCCCC1=O)Nc1ccc(C[C@@H]2CC[C@H]([C@H](O)c3ccccc3)N2)cc1 [Example 89] | 0.001 to 0.01 µM

Same assay, conditions: Table 5; read-out: Human β3 Functional

Row | Compound | EC50
20 | CC(C(=O)Nc1ccc(C[C@@H]2CC[C@H]([C@H](O)c3ccccc3)N2)cc1)n1cc(C(=O)O)nn1 (single isomer, unassigned) [Example 190] | 0.011 to 0.1 µM
21 | Cc1nc2c(s1)CCCC2C(=O)Nc1ccc(C[C@@H]2CC[C@H]([C@H](O)c3ccccc3)N2)cc1 (single isomer, unassigned) [Example 120] | 0.011 to 0.1 µM
22 | Cc1nnc2n1CCCC2C(=O)Nc1ccc(C[C@@H]2CC[C@H]([C@H](O)c3ccccc3)N2)cc1 (single isomer, unassigned) [Example 150] | 0.001 to 0.01 µM
23 | CCC(C(=O)Nc1ccc(C[C@@H]2CC[C@H]([C@H](O)c3ccccc3)N2)cc1)n1nccn1 (single isomer, unassigned) [Example 216] | 0.001 to 0.01 µM
24 | O=C(Nc1ccc(C[C@@H]2CC[C@H]([C@H](O)c3ccccc3)N2)cc1)C1CCCn2ccnc21 (single isomer, unassigned) [Example 155] | 0.101 to 1 µM
25 | Cc1nnc2n1CCC2C(=O)Nc1ccc(C[C@@H]2CC[C@H]([C@H](O)c3ccccc3)N2)cc1 (single isomer, unassigned) [Example 125] | 0.001 to 0.01 µM
26 | O=C(Nc1ccc(C[C@@H]2CC[C@H]([C@H](O)c3ccccc3)N2)cc1)C1CCn2nnnc21 (single isomer, unassigned) [Example 131] | 0.001 to 0.01 µM
27 | O=C(Nc1ccc(C[C@@H]2CC[C@H]([C@H](O)c3ccccc3)N2)cc1)C1CCc2sc(Br)nc21 (single isomer, unassigned) [Example 144] | 0.001 to 0.01 µM
28 | O=C(Nc1ccc(CC2CCC(C(O)c3ccccc3)N2)cc1)C1Cc2ccccc2C1 (stereo not drawn) [Example 106] | 0.011 to 0.1 µM
29 | Nc1nc(C(CCF)C(=O)Nc2ccc(CC3CCC(C(O)c4ccccc4)N3)cc2)cs1 (stereo not drawn) [Example 222] | < 0.001 µM
30 | CC(C(=O)Nc1ccc(C[C@@H]2CC[C@H]([C@H](O)c3ccccc3)N2)cc1)n1nncc1C(N)=O (single isomer, unassigned) [Example 199] | 0.001 to 0.01 µM
31 | O=C(Nc1ccc(C[C@@H]2CC[C@H]([C@H](O)c3ccccc3)N2)cc1)C1CCc2sc(-c3ccc(F)cc3)nc21 (single isomer, unassigned) [Example 123] | 0.101 to 1 µM
32 | CC(Oc1cccnn1)C(=O)Nc1ccc(C[C@@H]2CC[C@H]([C@H](O)c3ccccc3)N2)cc1 (single isomer, unassigned) [Example 214] | 0.101 to 1 µM
33 | Cc1nc2c(s1)CCC2C(=O)Nc1ccc(C[C@@H]2CC[C@H]([C@H](O)c3ccccc3)N2)cc1 (single isomer, unassigned) [Example 119] | < 0.001 µM
34 | CC(C(=O)Nc1ccc(C[C@@H]2CC[C@H]([C@H](O)c3ccccc3)N2)cc1)n1cccn1 (single isomer, unassigned) [Example 181] | 0.001 to 0.01 µM
35 | Cc1n[nH]c2c1CCC2C(=O)Nc1ccc(C[C@@H]2CC[C@H]([C@H](O)c3ccccc3)N2)cc1 (single isomer, unassigned) [Example 139] | 0.001 to 0.01 µM
36 | COC(=O)c1cn(C(C)C(=O)Nc2ccc(C[C@@H]3CC[C@H]([C@H](O)c4ccccc4)N3)cc2)nn1 (single isomer, unassigned) [Example 188] | 0.001 to 0.01 µM
37 | O=C(Nc1ccc(C[C@@H]2CC[C@H]([C@H](O)c3ccccc3)N2)cc1)C1CCn2nnnc21 (single isomer, unassigned) [Example 130] | 0.001 to 0.01 µM
38 | CC(C(=O)Nc1ccc(C[C@@H]2CC[C@H]([C@H](O)c3ccccc3)N2)cc1)n1nncc1C(=O)O (single isomer, unassigned) [Example 197] | 0.001 to 0.01 µM

Same assay, conditions: Table 6; read-out: Human β3 Functional

Row | Compound | EC50
39 | Nc1nc2c(s1)CCCC2C(=O)Nc1ccc(CC2CCC(C(O)c3ccccc3)N2)cc1 (single isomer, unassigned) [Example 227] | 0.101 to 1 µM

Same assay, conditions: Table 7; β3AR-cAMP; read-out: Human β3 Functional

Row | Compound | EC50
40 | O=S(=O)(Nc1ccc(C[C@@H]2CC[C@H]([C@H](O)c3ccccc3)N2)cc1)c1ccc(-c2cocn2)cc1 [Example 241] | 0.011 to 0.1 µM
41 | O=S(=O)(Nc1ccc(C[C@@H]2CC[C@H]([C@H](O)c3ccccc3)N2)cc1)c1cccc2ccccc12 [Example 235] | 0.101 to 1 µM
42 | O=S(=O)(Nc1ccc(C[C@@H]2CC[C@H]([C@H](O)c3ccccc3)N2)cc1)c1cccc2ccncc12 [Example 236] | 1 to 3 µM
43 | Cc1nccc(-c2cccc(S(=O)(=O)Nc3ccc(C[C@@H]4CC[C@H]([C@H](O)c5ccccc5)N4)cc3)c2)n1 [Example 243] | 0.101 to 1 µM

Same assay, conditions: Table 9; read-out: Human β^3 Functional

Row | Compound | EC50
44 | CC(NC(=O)c1cnccn1)C(=O)Nc1ccc(C[C@@H]2CC[C@H]([C@H](O)c3ccccc3)N2)cc1 (stereo partly drawn) [Example 269] | 0.001 to 0.01 µM
45 | CC(N)C(=O)Nc1ccc(C[C@@H]2CC[C@H]([C@H](O)c3ccccc3)N2)cc1 (stereo partly drawn) [Example 270] | 0.011 to 0.1 µM

Same assay, conditions: Table 12; read-out: Human β3 Functional

Row | Compound | EC50
46 | Nc1nc2c(s1)CCC2C(=O)Nc1ccc(CC2CCC(C(O)c3ccc(F)c(F)c3)N2)cc1 (single isomer, unassigned) [Example 292] | < 0.001 µM
47 | Nc1nc2c(s1)CCC2C(=O)Nc1ccc(CC2CCC(C(O)c3ccc(F)c(F)c3)N2)cc1 (single isomer, unassigned) [Example 291] | 0.011 to 0.1 µM

Same assay, conditions: given as a range; cAMP, CHO cells; read-out: human β3 functional activity

Row | Compound | EC50
48 | Nc1nc(CC(=O)Nc2ccc(C[C@H]3CC[C@H]([C@H](O)c4ccccc4)N3)cc2)cs1 [Example 3, 2-(2-Amino-1,3-thiazol-4-yl)-N-[4-({(2R,5R)-[(R)hydroxy(phenyl)methyl]pyrrolidinyl}methyl)phenyl]acetamide] | 0.011 to 0.1 µM
49 | Nc1nc(CC(=O)Nc2ccc(C[C@@H]3CC[C@H]([C@H](O)c4ccccc4)N3)cc2Br)cs1 [Example 312, 2-(2-Amino-1,3-thiazol-4-yl)-N-[2-bromo-4-({(2S,5R)-5-[(R)-hydroxy(phenyl)methyl]pyrrolidin-2-yl}methyl)phenyl]acetamide] | 0.011 to 0.1 µM

Same assay, conditions: human β3 functional activity, shown as ranges; Table 13; read-out: Human β3 Functional

Row | Compound | EC50
50 | Nc1nc(CC(=O)Nc2ccc(C[C@@H]3CC[C@H]([C@H](O)c4cccc(Cl)c4)N3)cc2)cs1 [Example 304] | 0.001 to 0.01 µM
51 | O=C(Cn1ncccc1=O)Nc1ccc(C[C@@H]2CC[C@H]([C@H](O)c3cccc(Cl)c3)N2)cc1 [Example 305] | 0.011 to 0.1 µM
52 | O=C(Nc1ccc(CC2CCC(C(O)c3cccc(Cl)c3)N2)cc1)C1CCc2sc(F)nc21 (single isomer, unassigned) [Example 300] | 0.001 to 0.01 µM
53 | CC(C(=O)Nc1ccc(CC2CCC(C(O)c3cccc(Cl)c3)N2)cc1)c1cscn1 (single isomer, unassigned) [Example 303] | 0.011 to 0.1 µM

Same assay, conditions: human β3 functional activity, shown as ranges; Table 14; read-out: Human β3 Functional

Row | Compound | EC50
54 | Nc1nc2c(s1)CCC2C(=O)Nc1ccc(CC2CCC(C(O)c3cccc(F)c3)N2)cc1 (single isomer, unassigned) [Example 306] | < 0.001 µM
